For four cell lines, relative viability results are on record in the supplement of paper PMC10307832.

What all share (test): relative viability (nuclei count vs DMSO), 5 days (fraction); higher = more cells survive
Compound in test [1]: O=C(CCCCCCNC(=O)c1cnc(N(c2ccccc2)c2ccccc2)nc1)NO [Ricolinostat] + Nc1ncn([C@H]2C[C@H](O)[C@@H](CO)O2)c(=O)n1 [Decitabine] (partner 2 µM)
In outline: (§1)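 Lung cancer cell lines were seeded in 1536-well plates and dosed by pin tool the next day, with either a single drug or a fixed anchor-drug dose combined with five library-drug doses (not always all listed) spaced in √10 steps. Five days later, one step fixed the cells and stained their nuclei (final 0.05% Triton X-100, 1% formaldehyde, 1 ug/ml Hoechst), and nuclei were counted on 4× images. Relative viability is the nuclei count in treated wells divided by the count in vehicle wells, and each value is the median of duplicate plates.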

Compound in test [2]: C1=CC=C(C(=C1)C2=CC=C(C=C2)C3=CSC4=C3C(=C(C(=O)N4)C#N)O)O + O=C(c1cc(Cc2n[nH]c(=O)c3ccccc23)ccc1F)N1CCN(C(=O)C2CC2)CC1 [Olaparib] (partner 8 µM)
In outline:
as §1

Compound in the test “TGX 221 + Foretinib”: CC1=CN2C(=O)C=C(N=C2C(=C1)C(C)NC3=CC=CC=C3)N4CCOCC4 [TGX 221] + COc1cc2c(Oc3ccc(NC(=O)C4(C(=O)Nc5ccc(F)cc5)CC4)cc3F)ccnc2cc1OCCCN1CCOCC1 [Foretinib] (partner 0.25 µM)
In outline:
as §1

Compound in the test “TGX 221 + Palbociclib”: CC1=CN2C(=O)C=C(N=C2C(=C1)C(C)NC3=CC=CC=C3)N4CCOCC4 [TGX 221] + CC(=O)c1c(C)c2cnc(Nc3ccc(N4CCNCC4)cn3)nc2n(C2CCCC2)c1=O [Palbociclib] (partner 0.5 µM)
An outline of the steps:
as §1

As to NCI-H2405, the relative viability amounted to 0.671 in test [1] (first compound 0.08 µM); 0.749 in test [1] (first compound 0.253 µM); 0.804 in test [1] (first compound 0.8 µM); 0.797 in test [1] (first compound 2.53 µM); 0.896 in test [2] (first compound 0.08 µM); 0.928 in test [2] (first compound 0.8 µM). Also, the relative viability in test [2] (first compound 2.53 µM) amounted to 0.825; in test [2] (first compound 8 µM), 0.878; with TGX 221 + Foretinib (first compound 0.08 µM) it was 1.01; in the test with TGX 221 + Foretinib (first compound 0.253 µM) it was 0.99; with TGX 221 + Foretinib (first compound 0.8 µM), 1.04; in the test with TGX 221 + Foretinib (first compound 2.53 µM), 0.897. The relative viability in the test with TGX 221 + Foretinib (first compound 8 µM) is 0.863; with TGX 221 + Palbociclib (first compound 0.08 µM), 0.482; with TGX 221 + Palbociclib (first compound 0.253 µM), 0.484; with TGX 221 + Palbociclib (first compound 0.8 µM) it was 0.504; with TGX 221 + Palbociclib (first compound 2.53 µM), 0.456; with TGX 221 + Palbociclib (first compound 8 µM), 0.482.
Consider PC-14, for which the relative viability in test [1] (first compound 0.08 µM) is 0.22; in test [1] (first compound 0.253 µM) it was 0.19; in test [1] (first compound 0.8 µM), 0.193; in test [1] (first compound 2.53 µM), 0.22; in test [2] (first compound 0.08 µM), 0.352; in test [2] (first compound 0.253 µM) it was 0.261. For the same cell line, the relative viability in test [2] (first compound 0.8 µM) was found to be 0.252; in test [2] (first compound 2.53 µM), 0.255; in test [2] (first compound 8 µM) it was 0.28; in the test with TGX 221 + Foretinib (first compound 0.08 µM), 1.04; with TGX 221 + Foretinib (first compound 0.253 µM) it was 0.953; with TGX 221 + Foretinib (first compound 0.8 µM), 0.934. Also, the relative viability was found to be 1.06 in the test with TGX 221 + Foretinib (first compound 2.53 µM); 0.858 in the test with TGX 221 + Foretinib (first compound 8 µM); 0.539 with TGX 221 + Palbociclib (first compound 0.08 µM); 0.408 with TGX 221 + Palbociclib (first compound 0.253 µM); 0.543 with TGX 221 + Palbociclib (first compound 0.8 µM); 0.577 with TGX 221 + Palbociclib (first compound 2.53 µM). Besides, the relative viability in the test with TGX 221 + Palbociclib (first compound 8 µM) turned out to be 0.397.
For the cell line COR-L23, the relative viability in test [1] (first compound 0.08 µM) turned out to be 0.402; in test [1] (first compound 0.253 µM) it was 0.493; in test [1] (first compound 0.8 µM) it was 0.358; in test [1] (first compound 2.53 µM) it was 0.332; in test [2] (first compound 0.08 µM), 0.318; in test [2] (first compound 0.253 µM), 0.343. For the same cell line, the relative viability came to 0.32 in test [2] (first compound 0.8 µM); 0.365 in test [2] (first compound 2.53 µM); 0.322 in test [2] (first compound 8 µM); 0.889 in the test with TGX 221 + Foretinib (first compound 0.08 µM); 0.912 in the test with TGX 221 + Foretinib (first compound 0.253 µM); 1.04 with TGX 221 + Foretinib (first compound 0.8 µM). For the same cell line, the relative viability with TGX 221 + Foretinib (first compound 2.53 µM) amounted to 0.964; with TGX 221 + Foretinib (first compound 8 µM), 0.938; in the test with TGX 221 + Palbociclib (first compound 0.08 µM) it was 0.247; with TGX 221 + Palbociclib (first compound 0.253 µM), 0.278; in the test with TGX 221 + Palbociclib (first compound 0.8 µM), 0.305; with TGX 221 + Palbociclib (first compound 2.53 µM), 0.3. The relative viability with TGX 221 + Palbociclib (first compound 8 µM) is 0.284.
Turning to NCI-H1666, the relative viability in test [1] (first compound 0.08 µM) stood at 0.71; in test [1] (first compound 0.253 µM), 0.764; in test [1] (first compound 0.8 µM) it was 0.758; in test [1] (first compound 2.53 µM) it was 0.717; in test [2] (first compound 0.08 µM) it was 0.731; in test [2] (first compound 0.253 µM) it was 0.715. In addition, the relative viability in test [2] (first compound 0.8 µM) was found to be 0.767; in test [2] (first compound 2.53 µM) it was 0.737; in test [2] (first compound 8 µM) it was 0.747; with TGX 221 + Foretinib (first compound 0.08 µM) it was 1.06; with TGX 221 + Foretinib (first compound 0.253 µM), 0.902; with TGX 221 + Foretinib (first compound 0.8 µM), 0.951. The relative viability was 0.963 with TGX 221 + Foretinib (first compound 2.53 µM); 0.922 in the test with TGX 221 + Foretinib (first compound 8 µM); 0.679 with TGX 221 + Palbociclib (first compound 0.08 µM); 0.599 with TGX 221 + Palbociclib (first compound 0.253 µM); 0.638 in the test with TGX 221 + Palbociclib (first compound 0.8 µM); 0.667 with TGX 221 + Palbociclib (first compound 2.53 µM). Besides, in the test with TGX 221 + Palbociclib (first compound 8 µM), the relative viability turned out to be 0.674.
